Measurements as given in patent publication US20060264418A1, “6-(2,2,2-Trifluoroethylamino-7-chloro-2,3,4,5-tetrahydro-1h-benzo[d] azephine as a 5-ht2c receptor agonist” (priority 2003, published 2006).

How the values were obtained:
Wistar rats = assay: Schedule-induced polydipsia; type: in vivo, rat
Excerpt: Food-deprived rats exposed to intermittent presentations of food will drink amounts of water that are far in excess of their normal daily intake and in excess of their intake when given all of their food at one time (Falk J L. “Production of polydipsia in normal rats by an intermittent food schedule”, Science 133: 195-196, (1961)). This excessive behavior is persistent and has been used to model OCD.
Maintain Wistar rats on a food restricted diet (to maintain 85% free feeding weight), but with free access to water. Train the rats in a behavioral testing chamber to press a lever to receive a food pellet under a fixed interval schedule, such that the rats are rewarded with a 45 mg food pellet the first time they press a lever after a 120 second interval has elapsed. The fixed interval is then reset to 120 seconds and the process repeated. Thus, during a 90 min. test session, the rats can earn a maximum of 45 pellets. The behavioral chamber is also equipped with a water bottle that is weighed before and after the session to determine the amount of water consumed.
Administer test compounds on Tuesdays and Fridays. Determine control day performances on Thursdays. Administer compounds either orally at 60 min. before the beginning of a test session, or subcutaneously at 20 min. before the beginning of a test session. Compare the rates of lever pressing and water consumption for each animal's performance during sessions after test compound treatment with that animal's performance during control sessions, expressed as a percent of the control rate. Average the individual percent of control rates for each dose and calculate the standard error of the mean.
The in vivo efficacy of 5HT2C compounds at the 5HT2C receptor was confirmed by the prevention of effects of the 5HT2C agonists on excessive drinking by co-administration of the 5HT2C receptor antagonist, 6-chloro-5-methyl-N-(2-(2-methylpyridin-3-yl-oxy)pyridin-5-yl)aminocarbonyl)-2,3-dihydroindole.

male NIH Swiss mice = assay: Marble burying assay (with rotorod); type: in vivo, mouse
Excerpt: Marble burying in mice has been used to model anxiety disorders including obsessive-compulsive disorders (OCD) due to ethological study of the behavior (e.g. Gyertyan I. “Analysis of the marble burying response: Marbles serve to measure digging rather than evoke burying”, Behavioural Pharmacology 6: 24-31, (1995)) and due to the pharmacological effects of clinical standards (c.f., Njung′E K. Handley S L. “Evaluation of marble-burying behavior as a model of anxiety”, Pharmacology, Biochemistry & Behavior. 38: 63-67, (1991)); Borsini F., Podhorna J., and Marazziti, D. “Do animal models of anxiety predict anxiolytic effects of antidepressants?”, Psychopharmacology 163: 121-141, (2002)). Thus, drugs used in the treatment of generalized anxiety in humans (e.g. benzodiazepines) as well as compounds used to treat OCD (e.g. SSRIs like fluoxetine) decrease burying.
House experimentally-naïve male, NIH Swiss mice (Harlan Sprague-Dawley, Indianapolis, Ind.) weighing between 28-35 g in groups of 12 for at least three days prior to testing in a vivarium with 12 hr. light and dark cycles. Conduct experiments during the light cycle in a dimly lit experimental testing room. Dose mice with vehicle or compound and, after a specified pretreatment interval (generally 30 min.), place each mouse individually on a rotorod (Ugo Basile 7650) operating at a speed of 6 revolutions/min. and observe for falling. After 2 min. on the rotorod, place the mice individually in a 17×28×12 cm high plastic tub with 5 mm sawdust shavings on the floor that are covered with 20 blue marbles (1.5 cm diameter) placed in the center. After 30 min., count the number of marbles buried (⅔ covered with sawdust). Assess the compound's effect on marble burying with Dunnett's test and the effect on rotorod performance by Fisher's exact test.
Clinically effective standard compounds suppress marble burying at doses that are devoid of motor-impairing effects as measured on the rotorod. […]

FC(F)(F)CNc1c(Cl)ccc2c1CCNCC2.O=C(O)CCC(=O)O [Example 2, 7-Chloro-6-(2,2,2-trifluoroethylamino)-2,3,4,5-tetrahydro-1H-benzo[d]azepine Succinic Acid Salt]
schedule-induced polydipsia (excessive drinking) (Wistar rats; food restricted rats, 90 min. test session): suppress schedule-induced polydipsia without producing notable changes in motor patterns, food intake, or behavior the following day | suppression of excessive drinking with co-administration of the 5-HT2C receptor antagonist (Wistar rats; rats): blocked | reduction of burying behavior with co-administration of the 5-HT2C antagonist (male NIH Swiss mice): blocked | marble burying behavior (relative to rotorod performance) (male NIH Swiss mice; 30 min. burying session): reduce burying behavior
